US20220323437A1, “METHODS FOR TREATING PULMONARY ARTERIAL HYPERTENSION” (ACTELION PHARMACEUTICALS LTD, priority 2019, published 2022)
Like-named read-outs stand apart in the source and are kept apart here.

Assay: Pharmacokinetics of selexipag and ACT-333679 after oral and i.v. selexipag in subjects with stable PAH (Phase 3 switch study)
Type: in vivo, human
Conditions: for AUC / Cmax: human, plasma, steady state; for AUC: read-out: AUCτ, ss Geom. Mean; for Cmax: read-out: Cmax, ss Geom. Mean
Protocol: This was a prospective, multicenter, open-label, single-sequence, cross-over, Phase 3 study. Based on the dose of selexipag received at study entry, subjects were allocated to one of the following groups, selexipag 200-1000 μg b.i.d. or selexipag 1200-1600 μg b.i.d. See, FIG. 1. The study comprised the following periods:
(ii) Treatment and observation period: The treatment and observation period included the following consecutive periods: • Period 1 included oral selexipag pre-treatment period for 1 day, in-hospital. This period started with intake of the morning dose of oral selexipag on Day 1 at Visit 2 and ended the following day, before initiation of the first infusion of i.v. selexipag. • Period 2 included i.v. selexipag treatment period for 36 hours [3 infusions], in-hospital. This period started in the morning of Day 2 at Visit 2 with the start of the first infusion of i.v. selexipag and ended in the evening of Day 3 at Visit 2 before the evening administration of oral selexipag. Administration of oral selexipag was interrupted during the i.v. selexipag treatment period. • Period 3 included oral selexipag post-treatment period for 7 to 11 day. This period started in the evening of Day 3 at Visit 2 with the administration of oral selexipag and ended 7-11 days later, at Visit 3.
Selexipag was provided as a dry powder to be reconstituted as an injectable solution for i.v. administration. Before administration, selexipag dry powder was to be reconstituted and diluted with sterile 0.9% NaCl solution. Each subject received an i.v. selexipag dose that corresponded to the subject's individual stable dose of oral selexipag. […] See, Table 4.
The intravenous infusion took place over a 87-minute period (2 infusions on Day 2 and 1 infusion on Day 3)
The following PK endpoints were analyzed for selexipag and its active metabolite, ACT-333679, after oral selexipag in Period 1 and after i.v. selexipag administration in Period 2. See, FIG. 2. • The area under the plasma-concentration time curve (AUC) during a dose interval at steady state (AUCτ, ss). • The maximum plasma concentration at steady state (Cmax, ss). • The time to reach maximum plasma concentration at steady state (tmax, ss). • Trough plasma concentration at steady state (Ctrough, ss).

- tmax, ss between the i.v. and oral selexipag periods (Period 2 vs Period 1): comparable
- slope of dose proportional increase in exposure (after i.v. selexipag, 450-1800 μg b.i.d. dose range): 0.697
- exposure after i.v. and oral selexipag administration (conclusion of the study): comparable
- AUC (iv, Period 2 (i.v. selexipag)): 15.9 ng·h/mL
- Cmax (iv, Period 2 (i.v. selexipag)): 2.6 ng/mL
- AUC (Period 1 (oral selexipag)): 19.3 ng·h/mL
- Cmax (Period 1 (oral selexipag)): 3.3 ng/mL
- dose-normalized geometric mean ratio (i.v./oral selexipag) for AUCτ, ss (90% CI) (i.v. to oral dose ratio 1.125): 0.80 (0.71, 0.90)
- dose-normalized geometric mean ratio (i.v./oral selexipag) for Cmax, ss (90% CI) (i.v. to oral dose ratio 1.125): 0.79 (0.65, 0.96)
Compound: CC(C)N(CCCCOCC(=O)O)c1cnc(-c2ccccc2)c(-c2ccccc2)n1 [ACT-333679]
